Results reported in US6924309B2 (Children, Youth and Women's Health Service Incorporated, priority 1999, dated 2005).
Read-outs that look alike come from different tables or passages of the source.

Columns and labels:
[1] = Petri-dish thin film autoxidation of arachidonic acid with thia fatty acids and sulfides (HPLC); details: for Arachidonic acid (%) recovered following autoxidation: arachidonic acid alone
Protocol: A stock solution in dichioromethane (2 ml) containing arachidonic acid 1 (18 mg) and 3-[(3Z,6Z)-nona-3,6dienylthio]propionic acid 106 (18 mg) was prepared with lauric acid (18 mg) as an internal standard. Samples of the stock solution (100 μl) were added to glass Petri-dishes followed by ethanol (400 μl). After evaporation of the solvent, a well-distributed thin film was formed on each Petri-dish. The Petri-dishes were placed in a desiccator, which was then evacuated, filled with oxygen and stored in the darkness. Dishes were removed from the desiccator after 1, 2, 3, 5 and 7 days. The mixture on each dish was redissolved in diethyl ether and transferred to a 2 ml vial. After evaporation of the solvent, the residue was dissolved in the HPLC mobile phase (100 μl) and 10% of the solution was analysed by HPLC using a reverse phase column (octadecylsilane) (4.6 mm×250 mm, 3 μm) and a refractive index detector.
Autoxidation of arachidonic acid was conducted in the presence of compound 19 and lauric acid. Stock solutions of arachidonic acid, compound 19 and lauric acid in dichloromethane with equal concentrations were added to a 25 ml round-bottomed flask, and the solvent was evaporated to leave a thin film on the internal surface of the flask. The flask was then filled with oxygen and kept in the dark. The percentages of arachidonic acid and compound 19 remaining after 7 days were measured by HPLC. The same assay was carried out simultaneously with several flasks but the results were not reproducible. The variation was attributed to differences in oxygen concentration and the surface area of the thin films formed in the flasks. Therefore, in order to establish a reproducible assay for the analysis of the autoxidation of arachidonic acid, Petri-dishes with uniform size (80 mm in diameter) were used instead of flasks for thin film formation and the oxidation was carried out by placing the Petri-dishes in a dessicator filled with oxygen. To assess this method, thin firms of arachidonic acid with lauric acid as a standard were prepared on six Petri-dishes using identical treatment, and then subjected to oxidation in the same dessicator filled with oxygen. After 24 h, the percentage of arachidonic acid recovered following autoxidation in each Petri-dish was determined by HPLC. […] The advantage of using a Petri-dish over a flask is that the thin films on each Petri-dish are spread over the same area, and each Petri-dish is exposed to oxygen to the same extent.
Using the Petri-dish assay method, the effects of the thia PUFAs and sulfides 106 and 108-111, along with compounds 18, 19 and 3-[(Z,Z,Z)-(octadeca-9,12,15-trienylthio)] propionic acid 112 which were available in the laboratory, on the autoxidation of arachidonic acid, were examined. In addition, the stability of these compounds in the presence of arachidonic acid was also investigated. Arachidonic acid and lauric acid as a standard were mixed with each sulfur compound at different ratios and the mixtures were subjected to thin film autoxidation. The mixtures were analysed by HPLC after 1,2,3,5 and 7 days.

[2] = Thin film autoxidation of arachidonic acid with compounds 16-19 (HPLC)
From the text: Subsequently, the autoxidation of compounds 16-19 and their effects on the autoxidation of arachidonic acid were investigated. In these experiments, a thin film assay method was employed. For each reaction, arachidonic acid was mixed with one of the synthetic compounds 16, 17, 18 or 19 at 1:1 ratio with or without the radical initiator, azobisisobutyronitrile (AIBN). A reverse phase HPLC method was used to simultaneously measure the relative amounts of arachidonic acid and the synthetic compounds 16, 17, 18 or 19 recovered following 60 or 70 hours or 7 days of thin film autoxidation.

[3] = 1:1 ratio with arachidonic acid
[4] = compound at one-tenth that of arachidonic acid
[5] = ratio arachidonic acid:compound 1:1, 1 day
[6] = ratio arachidonic acid:compound 1:1, 2 days
[7] = ratio arachidonic acid:compound 1:1, 3 days
[8] = ratio arachidonic acid:compound 1:1, 5 days
[9] = ratio arachidonic acid:compound 1:1, 7 days
[10] = ratio arachidonic acid:compound 2:1, 1 day
[11] = ratio arachidonic acid:compound 2:1, 2 days
[12] = ratio arachidonic acid:compound 2:1, 3 days
[13] = ratio arachidonic acid:compound 2:1, 5 days
[14] = ratio arachidonic acid:compound 2:1, 7 days
[15] = ratio arachidonic acid:compound 10:1, 1 day
[16] = ratio arachidonic acid:compound 10:1, 2 days
[17] = ratio arachidonic acid:compound 10:1, 3 days
[18] = ratio arachidonic acid:compound 10:1, 5 days
[19] = ratio arachidonic acid:compound 10:1, 7 days

SMILES | Antioxidant effect on autoxidation of arachidonic acid (in words) [1, 3] | Antioxidant effect on autoxidation of arachidonic acid (in words) [1, 4] | Arachidonic acid (%) recovered following autoxidation in the presence of the compound [1, 5] [%] | Compound (%) recovered following autoxidation with arachidonic acid [1, 5] [%] | Arachidonic acid (%) recovered following autoxidation in the presence of the compound [1, 6] [%] | Compound (%) recovered following autoxidation with arachidonic acid [1, 6] [%] | Arachidonic acid (%) recovered following autoxidation in the presence of the compound [1, 7] [%] | Compound (%) recovered following autoxidation with arachidonic acid [1, 7] [%] | Arachidonic acid (%) recovered following autoxidation in the presence of the compound [1, 8] [%] | Compound (%) recovered following autoxidation with arachidonic acid [1, 8] [%] | Arachidonic acid (%) recovered following autoxidation in the presence of the compound [1, 9] [%] | Compound (%) recovered following autoxidation with arachidonic acid [1, 9] [%] | Arachidonic acid (%) recovered following autoxidation in the presence of the compound [1, 15] [%] | Compound (%) recovered following autoxidation with arachidonic acid [1, 15] [%] | Arachidonic acid (%) recovered following autoxidation in the presence of the compound [1, 16] [%] | Compound (%) recovered following autoxidation with arachidonic acid [1, 16] [%] | Arachidonic acid (%) recovered following autoxidation in the presence of the compound [1, 17] [%] | Arachidonic acid (%) recovered following autoxidation in the presence of the compound [1, 18] [%] | Arachidonic acid (%) recovered following autoxidation in the presence of the compound [1, 19] [%] | other results
CCCCC/C=C\C/C=C\C/C=C\C/C=C\CCCC(=O)O [Arachidonic acid, arachidonic acid, reference compound] | – | – | – | – | – | – | – | – | – | – | – | – | – | – | – | – | – | – | – | Arachidonic acid (%) recovered following autoxidation ([1]; 1 day): 91%; Arachidonic acid (%) recovered following autoxidation ([1]; 2 days): 20%; Arachidonic acid (%) recovered following autoxidation ([1]; 3 days): 16%; Arachidonic acid (%) recovered following autoxidation ([1]; 5 days): 12%
CCCCC/C=C\C/C=C\C/C=C\CCCCCOCC(=O)O [Compound 16, (Z,Z,Z)-(octadeca-6,9,12-trienyloxy) acetic acid] | – | – | – | – | – | – | – | – | – | – | – | – | – | – | – | – | – | – | – | Percentage of arachidonic acid recovered in the presence of the compound ([2]; ratio 1:1, 10% AIBN 60 h): 17%; Percentage of compound recovered (with arachidonic acid) ([2]; ratio 1:1, 10% AIBN 60 h): 11%; Percentage of arachidonic acid recovered in the presence of the compound ([2]; ratio 1:1, no additive 70 h): 97%; Percentage of compound recovered (with arachidonic acid) ([2]; ratio 1:1, no additive 70 h): 88%; Percentage of arachidonic acid recovered in the presence of the compound ([2]; ratio 1:1, no additive 7 day): 23%; Percentage of compound recovered (with arachidonic acid) ([2]; ratio 1:1, no additive 7 day): 27%
CC/C=C\C/C=C\C/C=C\CCCCCCCCOCC(=O)O [Compound 17, (Z,Z,Z)-(octadeca-9,12,15-trienyloxy) acetic acid] | – | – | – | – | – | – | – | – | – | – | – | – | – | – | – | – | – | – | – | Percentage of arachidonic acid recovered in the presence of the compound ([2]; ratio 1:1, 10% AIBN 60 h): 44%; Percentage of compound recovered (with arachidonic acid) ([2]; ratio 1:1, 10% AIBN 60 h): 49%; Percentage of arachidonic acid recovered in the presence of the compound ([2]; ratio 1:1, no additive 70 h): 92%; Percentage of compound recovered (with arachidonic acid) ([2]; ratio 1:1, no additive 70 h): 102%; Percentage of arachidonic acid recovered in the presence of the compound ([2]; ratio 1:1, no additive 7 day): 30%; Percentage of compound recovered (with arachidonic acid) ([2]; ratio 1:1, no additive 7 day): 41%; Autoxidation of arachidonic acid in the presence of the compound (in words) ([2]; ratio 1:1, with or without AIBN): substantial degree of autoxidation
CC/C=C\C/C=C\CCSCCC(=O)O [Compound 106] | almost complete prevention of autoxidation | very slow over the first 3 days | 99 | 98 | 98 | 96 | 99 | 98 | 100 | 97 | 101 | 98 | 101 | 94 | 101 | 84 | 99 | 79 | 16 | Antioxidant effect on autoxidation of arachidonic acid (in words) [1]: effective antioxidants; Arachidonic acid (%) recovered following autoxidation in the presence of the compound [1, 10]: 98%; Compound (%) recovered following autoxidation with arachidonic acid [1, 10]: 97%; Arachidonic acid (%) recovered following autoxidation in the presence of the compound [1, 11]: 99%; Compound (%) recovered following autoxidation with arachidonic acid [1, 11]: 98%; Arachidonic acid (%) recovered following autoxidation in the presence of the compound [1, 12]: 98%; Compound (%) recovered following autoxidation with arachidonic acid [1, 12]: 97%; Arachidonic acid (%) recovered following autoxidation in the presence of the compound [1, 13]: 99%; Compound (%) recovered following autoxidation with arachidonic acid [1, 13]: 97%; Arachidonic acid (%) recovered following autoxidation in the presence of the compound [1, 14]: 99%; Compound (%) recovered following autoxidation with arachidonic acid [1, 14]: 100%; Compound (%) recovered following autoxidation with arachidonic acid [1, 17]: 59%
CCCCC/C=C\C/C=C\C/C=C\C/C=C\CCCCSCCC [Compound 110, propyl(all-Z)-eicosa-5,8,11,14-tetraenylpropyl sulfide] | effectively inhibit | still effective antioxidiants | – | – | – | – | 100 | 99 | – | – | 100 | 100 | 97 | 85 | 89 | 22 | 67 | 24 | 10 | –
CCCCCCCCCCCCCCSCCC [Compound 111, propyltetradecyl sulfide] | effectively inhibit | still effective antioxidiants | 100 | 101 | 98 | 91 | 98 | 92 | 98 | 92 | 97 | 90 | 99 | 81 | 99 | 63 | 97 | 68 | 17 | Compound (%) recovered following autoxidation with arachidonic acid [1, 17]: 38%
CC/C=C\C/C=C\C/C=C\CCCCCCCCSCCC(=O)O [Compound 112, 3-[(Z,Z,Z)-(octadeca-9,12,15-trienylthio)]-propionic acid] | effective as an antioxidant | less effective than either compound 19 or 106 | 100 | 100 | 99 | 98 | 98 | 97 | 99 | 97 | 93 | 86 | 82 | 25 | 33 | – | 17 | 4 | – | Antioxidant effect on autoxidation of arachidonic acid (in words) [1]: effective antioxidants
